Measured values: US20200000825A1, “METHODS AND COMPOSITIONS FOR TREATING AND PREVENTING VIRAL INFECTIONS” (ENTERIN LABORATORIES, INC., priority 2009, published 2020)
Like-named read-outs stand apart in the source and are kept apart here.

How the values were obtained:
HUVECs = test: Thrombin induced stress fiber formation in endothelial cells; type: cell-based, human; conditions: aminosterol 20 μM, thrombin 20 ng/ml, 2 hours
Method: The basic methods have been published (Williams, […] et al. 2001). HUVECs were grown on fibronectin-covered coverslips in EGM medium. […] Following a rinse, the cells were exposed to a 1:400 dilution of an FITC-goat antimurine antibody and 250 ng/ml TRITC phalloidin. The stained coverslips were visualized by fluorescence microscopy.

[1] = cited from earlier work
[2] = system: murine cytomegalovirus (MCMV); type: in vivo, Balb/c mice
RAW264.7 cell line = conditions: squalamine 80 μM, 30 minutes; cited from earlier work
[3] = system: human Hepatitis Delta virus; test: Hepatitis Delta virus replication in primary human hepatocytes, PCR (Example 13); type: cell-based
Method: Primary human hepatocytes were established in a 96 well microtiter plate. Squalamine was then added at concentrations of 20 or 60 μg/ml followed by an inoculum of Hep D virus, and then in culture for 3 hours, after which fresh medium was introduced, and the cells maintained in culture for 7 days. Viral growth was measured by PCR using viral specific primers and normalized to the total RNA extracted from each corresponding well.

[4] = system: Eastern Equine Encephalitis Virus; type: in vivo, hamsters (Syrian golden); conditions: 10 mg/kg/day s.c.
Dengue virus = test: Dengue infection of HMEC-1 cells, immunohistochemical detection of viral E protein (Example 11); type: cell-based, human
Method: Cells were grown on uncoated glass cover-slips following a published protocol (Zamudio-Meza, Castillo-Alvarez et al. 2009). The cells were pretreated with squalamine for 2 hr at 37° C. prior to viral exposure; virus (multiplicity of infection of 3) remained in contact with cells for 30 minutes at 4° C., followed by 90 minutes at 37° C. The medium was then replaced with fresh medium lacking virus and squalamine and maintained at 37° C. for 48 hrs. Cells were fixed and processed for immunohistochemical detection of viral E protein. Viral E protein expression was used to monitor the early stages of infection.

Yellow Fever = type: in vivo, Syrian hamsters
[5] = 500 mg/m(2)/day, 5-day continuous i.v. infusion
[6] = mouse, in vivo, ip, 10 mg/kg/day

CC(C)[C@@H](CC[C@@H](C)[C@H]1CC[C@H]2[C@@H]3[C@H](O)C[C@H]4C[C@@H](NCCCNCCCCN)CC[C@]4(C)[C@H]3CC[C@]12C)OS(=O)(=O)O [Squalamine, squalamine]
Disruption of thrombin induced stress fiber formation (HUVECs): Yes | Disruption of thrombin induced stress fiber formation (HUVECs; listed as squalamine): disrupt thrombin induced stress fiber formation | Mean clearance [1, 5]: 2.67 liters/h/m(2) | Mean half-life [1, 5]: 9.46 h | Mean volume of distribution [1, 5]: 36.84 liters/m(2) | Steady-state concentrations [1, 5]: 20.08 micro g/ml | Patients with dose-limiting grade 4 hyperbilirubinemia and grade 3 neurosensory changes ([1]; 500 mg/m(2)/day): one of seven | Tolerability ([1]; 500 mg/m(2)/day): well tolerated | Patients who developed grade 4 hyperbilirubinemia ([1]; 700 mg/m(2)/day): two of three | Dose dependence of pharmacokinetics ([1]; 6 to 700 mg/m(2)/day): dose-proportional | Viral titers in lung versus control ([2]; 10 mg/kg/day i.p.): trend toward reduction | Viral titers versus control cohort ([2]; day 7, spleen and liver, 10 mg/kg/day s.c. and i.p. groups): significantly lower | Viral titers, difference between groups ([2]; days 3 to 7, lungs and salivary glands): no significant differences | Effect on viral growth [2, 6]: little effect | Reduction in viral growth [2, 6]: greater than 10 fold | Virus in liver and spleen [2, 6]: undetectable | Virus in liver and spleen versus controls ([2]; mouse, in vivo, sc, 10 mg/kg/day): significantly reduced | Localization of Lact-C2 probe (RAW264.7 cell line): did not alter the localization | Localization of R-pre probe (RAW264.7 cell line): displaced from its residence on the plasma membrane | Inhibition of viral production ([3]; 20 μg/ml, added during initial stages of infection): 90% | Cytotoxicity in vitro ([3]; 60 μg/ml, primary human hepatocytes): cytotoxic | Hamsters still alive at the end of treatment ([4]; -24 h to 6 days after infection): 6/10 | Plasma concentration of virus, lower than vehicle ([4]; first 3 days post infection): about 100 fold | Inhibition of viral infection (Dengue virus; 46 ug/ml): about 80% | Inhibition of viral infection (Dengue virus; 60 μg/ml and higher): ~100% | Inhibition of viral infection (Dengue virus; 62 ug/ml): 100% | Cell viability (morphology, phase contrast) (Dengue virus; HMEC-1 cells at the effective squalamine concentrations): not diminished | Inhibition of viral infection (Dengue virus; about 40 μg/ml): 80% | Inhibition of viral infection (Dengue virus; concentrations above 40 ug/ml): almost completely inhibited | Animals cured (survival through day 21) (Yellow Fever; squalamine 15 mg/kg/day s.c. from 1 dpi to 8 dpi): 60% | Animals cured (survival through day 21) (Yellow Fever; squalamine 30 mg/kg/day s.c. from 1 dpi to 8 dpi): 60% | Animals cured (survival through day 21) (Yellow Fever; squalamine 30 mg/kg/day s.c. from 2 dpi to 9 dpi): 40%
